Entries after “also recorded” stand apart in the source; their conditions may differ. Where two headings read alike, the source gives them in different places. Peptide text beside a SMILES is read from it.
Columns and labels:
NMDA receptor [1] = biological target: T1, NMDA receptor (Rattus norvegicus, UniProt P35439); experiment: NMDA receptor-gated single neuron conductance (INMDA) in hippocampal CA1 pyramidal neurons; assay type: cell-based; conditions: for enhancement of INMDA compared among the tested compounds: comparison of compound B, AK-51, AK-52
T1 construct: NMDA receptor-gated single neuron conductance (INMDA) in hippocampal CAI pyramidal neurons; from tissue; host or cells: in vitro hippocampal slices, CA1 pyramidal neurons
Text: (§1) The effects of the three compounds were examined on 1) NMDA receptor-gated single neuron conductance (INMDA) in hippocampal CAI pyramidal neurons and 2) the magnitude of long-term potentiation (LTP) and long term depression (LTD) at Schaffer collateral CA1 synapses, in in vitro hippocampal slices.

[2] = tested on: Schaffer collateral-CA1 synapses; experiment: Long-term potentiation (LTP) at Schaffer collateral-CA1 synapses, in vitro hippocampal slices; assay type: cell-based; conditions: for magnitude of LTP: high frequency stimulus; for magnitude / induction of LTP: concentration not given
Text: as §1

[3] = tested on: Schaffer collateral-CA1 synapses; experiment: Long term depression (LTD) at Schaffer collateral-CA1 synapses, in vitro hippocampal slices; assay type: cell-based; conditions: 1 μM; low frequency stimulus 2 Hz/10 min
Text: as §1

rats = experiment: Alternating T-maze learning task; assay type: in vivo, rat; conditions: 60 min before testing
Description: Male 3 month old Fisher 344 X Brown Norway F1 cross rats (FBNF1) were used for this study. The t-maze was constructed with arms (45 cm long×10 cm wide×10 cm high) made of black Plexiglas enclosing the maze. Two plastic bottle caps, lined with wire mesh, were secured to the end of each goal arm in which the food reward (Cheerios, 100 mg/piece) was placed. Before the start of training, animals were gradually deprived of food to approximately 85% of their free feeding weight. On three successive days before the start of training, animals were habituated to the t-maze with food located throughout the maze. […] On the subsequent testing day, animals were given injections of AK51 (0.3, 1, 3, 10, 30 mg/kg p.o.), or DMSO vehicle (1 mg/ml; Sigma, Saint Louis Mo.) in a blind manner via gastric gavage (4″, 16-ga; Braintree Scientific, Braintree Mass.) 60 min prior to the start of testing (n=8-9 per group. On the first trial of testing, both arms were baited with food and for the subsequent 20 trials only alternating choices (opposite of the animal's previous choice) were rewarded (˜30 sec inter-trial interval). The number of trials to criterion (5 consecutive correct choices) was calculated for each animal. Data was analyzed by ANOVA followed by Fisher PLSD post hoc tests comparing individual drug doses to vehicle (α=0.05). […]

Glutamate, AMPA = experiment: Binding assay, Glutamate, AMPA; set-up: species or system rat; conditions: 10 μM
Text: (§2) Table B depicts the results of binding assays against various targets with AK51: […]

Glutamate, Kainate = experiment: Binding assay, Glutamate, Kainate; set-up: species or system rat; conditions: 10 μM
Text: as §2

[4] = biological target: Glutamate, Metabotropic, mGlus (Homo sapiens, UniProt P41594); experiment: Binding assay, Glutamate, Metabotropic, mGlus
Text: as §2

Glutamate, NMDA, Agonism = experiment: Binding assay, Glutamate, NMDA, Agonism; set-up: species or system rat; conditions: 10 μM
Text: as §2

Glutamate, NMDA, Glycine = Glutamate, NMDA, Glycine (Rattus norvegicus, UniProt P35439); experiment: Binding assay, Glutamate, NMDA, Glycine
Text: as §2

[5] = biological target: Glutamate, NMDA, Phencyclidine (Rattus norvegicus, UniProt P35439); experiment: Binding assay, Glutamate, NMDA, Phencyclidine
Text: as §2

[6] = biological target: Glutamate, NMDA, Polyamine (Rattus norvegicus, UniProt P35439+Q00960); experiment: Binding assay, Glutamate, NMDA, Polyamine
Text: as §2

Glutamate, Non-Selective = experiment: Binding assay, Glutamate, Non-Selective; set-up: species or system rat; conditions: 10 μM
Text: as §2

[7] = tested on: Glycine, Strychnine-Sensitive; experiment: Binding assay, Glycine, Strychnine-Sensitive; set-up: species or system rat; conditions: 10 μM
Text: as §2

NMDA receptor [8] = biological target: T1, NMDA receptor; conditions: cited from earlier work
[9] = tested on: Schaffer collateral-CA1 synapses; conditions: cited from earlier work
[10] = tested on: Schaffer collateral-CA1 synapses; conditions: cited from earlier work; remark: listed apart in the source

Sequence of Glutamate, NMDA, Polyamine (Q00960 27-1482, other chains not shown): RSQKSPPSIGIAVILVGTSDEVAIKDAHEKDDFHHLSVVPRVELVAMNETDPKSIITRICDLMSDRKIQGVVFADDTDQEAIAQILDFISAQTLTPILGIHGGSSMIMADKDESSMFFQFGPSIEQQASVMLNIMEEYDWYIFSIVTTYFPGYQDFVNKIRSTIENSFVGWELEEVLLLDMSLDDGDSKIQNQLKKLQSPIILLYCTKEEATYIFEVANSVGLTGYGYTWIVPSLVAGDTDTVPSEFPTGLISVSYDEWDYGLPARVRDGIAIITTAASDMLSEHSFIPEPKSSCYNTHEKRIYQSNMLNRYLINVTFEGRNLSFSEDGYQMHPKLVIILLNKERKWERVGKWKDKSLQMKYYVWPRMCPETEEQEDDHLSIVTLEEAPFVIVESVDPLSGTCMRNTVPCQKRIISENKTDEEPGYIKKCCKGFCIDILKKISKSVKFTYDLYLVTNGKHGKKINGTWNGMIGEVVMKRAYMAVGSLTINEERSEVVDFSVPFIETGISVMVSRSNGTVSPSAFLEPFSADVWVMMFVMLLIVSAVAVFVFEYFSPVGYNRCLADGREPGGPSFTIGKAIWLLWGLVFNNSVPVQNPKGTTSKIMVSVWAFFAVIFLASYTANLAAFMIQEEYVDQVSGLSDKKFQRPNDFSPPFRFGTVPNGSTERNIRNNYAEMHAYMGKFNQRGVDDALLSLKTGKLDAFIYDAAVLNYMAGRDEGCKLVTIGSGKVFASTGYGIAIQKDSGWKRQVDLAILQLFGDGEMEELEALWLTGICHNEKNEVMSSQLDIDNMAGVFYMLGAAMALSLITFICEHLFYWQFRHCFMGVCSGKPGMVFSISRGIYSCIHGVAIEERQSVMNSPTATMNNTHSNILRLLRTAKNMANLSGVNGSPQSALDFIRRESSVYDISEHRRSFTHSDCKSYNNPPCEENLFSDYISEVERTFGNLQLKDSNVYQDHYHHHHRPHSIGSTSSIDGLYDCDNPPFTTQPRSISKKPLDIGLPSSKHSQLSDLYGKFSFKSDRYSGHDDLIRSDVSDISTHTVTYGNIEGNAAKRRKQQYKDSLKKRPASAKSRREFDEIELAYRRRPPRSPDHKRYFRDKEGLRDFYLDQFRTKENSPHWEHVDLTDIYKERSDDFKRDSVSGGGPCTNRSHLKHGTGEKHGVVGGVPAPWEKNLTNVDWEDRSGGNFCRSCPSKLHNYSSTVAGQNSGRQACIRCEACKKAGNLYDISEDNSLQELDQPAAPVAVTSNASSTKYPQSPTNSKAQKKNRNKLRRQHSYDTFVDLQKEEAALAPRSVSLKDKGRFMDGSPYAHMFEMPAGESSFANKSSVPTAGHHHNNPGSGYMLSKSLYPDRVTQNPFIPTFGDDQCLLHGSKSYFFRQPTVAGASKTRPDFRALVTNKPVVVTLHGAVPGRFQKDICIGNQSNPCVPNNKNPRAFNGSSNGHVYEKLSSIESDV
Sequence of Glutamate, Metabotropic, mGlus (P41594 21-1212): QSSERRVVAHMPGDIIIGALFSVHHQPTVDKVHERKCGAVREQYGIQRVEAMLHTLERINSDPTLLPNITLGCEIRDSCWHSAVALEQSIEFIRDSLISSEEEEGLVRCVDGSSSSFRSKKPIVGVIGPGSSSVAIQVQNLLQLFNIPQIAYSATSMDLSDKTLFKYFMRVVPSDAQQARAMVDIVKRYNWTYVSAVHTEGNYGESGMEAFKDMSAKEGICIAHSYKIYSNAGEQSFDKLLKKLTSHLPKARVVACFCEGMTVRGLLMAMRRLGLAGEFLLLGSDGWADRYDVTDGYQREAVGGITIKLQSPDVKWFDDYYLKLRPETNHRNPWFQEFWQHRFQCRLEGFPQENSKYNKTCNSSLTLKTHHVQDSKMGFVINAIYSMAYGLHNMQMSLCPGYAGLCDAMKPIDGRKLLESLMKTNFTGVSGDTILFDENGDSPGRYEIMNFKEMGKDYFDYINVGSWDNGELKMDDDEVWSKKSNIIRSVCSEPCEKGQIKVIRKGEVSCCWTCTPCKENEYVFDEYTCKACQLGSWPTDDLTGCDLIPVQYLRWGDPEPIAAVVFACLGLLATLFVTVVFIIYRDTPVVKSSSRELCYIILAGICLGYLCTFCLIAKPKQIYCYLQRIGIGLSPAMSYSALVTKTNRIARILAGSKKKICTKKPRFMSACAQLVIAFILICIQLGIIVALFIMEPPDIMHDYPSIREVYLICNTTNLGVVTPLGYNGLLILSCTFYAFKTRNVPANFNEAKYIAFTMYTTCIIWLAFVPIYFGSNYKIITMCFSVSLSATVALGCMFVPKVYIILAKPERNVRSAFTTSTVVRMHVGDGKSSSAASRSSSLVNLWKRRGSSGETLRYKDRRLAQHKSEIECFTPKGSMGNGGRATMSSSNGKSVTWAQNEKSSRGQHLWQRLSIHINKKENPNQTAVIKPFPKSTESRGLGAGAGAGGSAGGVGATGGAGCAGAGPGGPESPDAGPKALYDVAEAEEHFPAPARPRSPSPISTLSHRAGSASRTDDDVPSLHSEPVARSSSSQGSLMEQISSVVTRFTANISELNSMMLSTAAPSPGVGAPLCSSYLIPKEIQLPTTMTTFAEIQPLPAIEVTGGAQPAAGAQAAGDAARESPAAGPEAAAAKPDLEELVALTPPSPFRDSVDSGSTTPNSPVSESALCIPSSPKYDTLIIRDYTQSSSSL

With O=C1NCC12CCCN2 (stereo not drawn) [AK-51] the “NMDA current (normalized pharmacologically-isolated NMDA receptor-gated current)” value (NMDA receptor [1]; 100 nM and 1 μM, 20 min bath application, whole-cell recording) was “enhances”, the “single shock evoked INMDA” value (NMDA receptor [1]; 100 nM, listed as NRX-10,051) was “enhanced; also recorded: marked enhancement” and the “single shock evoked INMDA” value (NMDA receptor [1]; 1 μM) was “enhancement”. For the same compound, the “single shock evoked INMDA” value (NMDA receptor [1]; 1 μM, listed as NRX-10,051) was “enhanced”, the “enhancement of INMDA compared among the tested compounds” value (NMDA receptor [1]) was “less potency than compound B; also recorded: smaller in magnitude” and the “magnitude of LTP” value ([2]; 100 nM) was “Enhancement”. The “magnitude of LTP” value ([2]; 1 μM, listed as AK5151) was “Enhancement”, the “magnitude of LTP” value ([2]; 1 μM, listed as NRX-10,051) was “doubled the magnitude” and the “magnitude / induction of LTP” value [2] was “enhances”. For the same compound, the LTD [3] was “not altering”, the “learning behavior in the T-maze test” value (rats; 1.0 mg/kg by mouth, P<0.001) was “statistically significant enhancement” and the “learning behavior in the T-maze test” value (rats; 3.0 mg/kg by mouth, P<0.01) was “statistically significant enhancement”. For the same compound, the “% Inhibition” value (Glutamate, AMPA) was −8%, the “% Inhibition” value (Glutamate, Kainate) was −13% and the inhibition at 10 µM [4] was -7%. The “% Inhibition” value (Glutamate, NMDA, Agonism) was 27%, the inhibition at 10 µM (Glutamate, NMDA, Glycine) was -6% and the inhibition at 10 µM [5] was -5%. The inhibition at 10 µM [6] was -14%, the “% Inhibition” value (Glutamate, Non-Selective) was −10% and the “% Inhibition” value [7] was 4%.
In the case of CC(O)C(NC(=O)OCc1ccccc1)C(=O)N1CC2(CCCN2C(=O)OCc2ccccc2)C1=O (stereo not drawn) [AK-52], the “single shock evoked INMDA” value (NMDA receptor [1]; 100 nM) is reported as “mild enhancement”, the “single shock evoked INMDA” value (NMDA receptor [1]; 100 nM, listed as AK52) is reported as “enhancement” and the “single shock evoked INMDA” value (NMDA receptor [1]; 1 μM) is reported as “significant reduction”. The “single shock evoked INMDA” value (NMDA receptor [1]; 1 μM, listed as AK52) was “marked reduction”, the “enhancement of INMDA compared among the tested compounds” value (NMDA receptor [1]) was “weakest enhancer” and the “magnitude of LTP” value ([2]; 100 nM) was “enhancement”. For the same compound, the “magnitude of LTP” value ([2]; 1 μM) was “slight, but significant, reduction”, the “magnitude / induction of LTP” value [2] was “selectively enhances” and the LTD [3] was “without altering; also recorded: did not affect”.
For C[C@@H](O)[C@H](N)C(=O)N1CCC[C@H]1C(=O)N1CCC[C@H]1C(=O)N[C@H](C(N)=O)[C@@H](C)O [GLYX-13] (H-TPPT-NH2), the “burst INMDA” value (NMDA receptor [8]; 100 μM) is listed as “reducing”, the “burst-activated INMDA” value (NMDA receptor [8]; 1-10 μM) is listed as “enhancement” and the “single pulse evoked INMDA” value (NMDA receptor [8]; 1-10 μM) is listed as “reducing”. The “INMDA mediated by NMDA receptors containing NR2A/B subunits” value (NMDA receptor [8]) was “selectively enhance”, the LTP ([9]; 100 μM) was “reducing” and the LTP ([9]; 1-10 μM) was “enhancement”. The “simultaneous effect on LTP and LTD” value [9] was “simultaneously increase LTP and reduce LTD”, the LTD ([10]; 100 μM) was “no longer affected” and the LTD ([10]; 1-10 μM) was “reducing”.
